In patent publication US8664257B2, “Oxygen-substituted 3-heteroaroylamino-propionic acid derivatives and their use as pharmaceuticals” (Sanofi, priority 2010, dated 2014) one finds IC50 data, which are given here for 36 compounds.

The first test addresses T1, Recombinant human cathepsin A (Homo sapiens, UniProt P10619).
T1 construct: Recombinant human cathepsin A (residues 29-480, with a C-terminal 10-His tag); 10-His (C); purchased R&D Systems 1049-SE
T1 sequence (P10619 29-312 limits assumed): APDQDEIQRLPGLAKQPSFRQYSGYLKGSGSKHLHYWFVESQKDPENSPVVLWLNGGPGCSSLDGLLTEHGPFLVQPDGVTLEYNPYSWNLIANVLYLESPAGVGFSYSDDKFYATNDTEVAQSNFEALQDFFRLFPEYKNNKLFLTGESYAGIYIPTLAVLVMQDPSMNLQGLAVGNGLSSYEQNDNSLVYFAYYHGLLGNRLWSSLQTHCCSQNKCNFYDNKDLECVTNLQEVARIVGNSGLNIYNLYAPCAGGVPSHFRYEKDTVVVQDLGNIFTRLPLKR
T1 sequence (P10619 327-480 limits assumed): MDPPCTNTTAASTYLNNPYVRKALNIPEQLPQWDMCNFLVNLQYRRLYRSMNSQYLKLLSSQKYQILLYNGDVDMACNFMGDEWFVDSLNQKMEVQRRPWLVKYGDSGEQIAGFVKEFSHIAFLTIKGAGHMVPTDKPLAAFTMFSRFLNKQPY
The experiment in a line: Cathepsin A inhibitory activity. Format: biochemical. The following applies: pharmacological test "Cathepsin A inhibitory activity"; IC50 given as class A/B/C; read-out: Activity (2): Cathepsin A inhibitory activity, IC50 class. An outline of the steps:
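Read-out was microfluidic separation of cleaved vs. uncleaved Bodipy FL-bradykinin (2 μM), giving turnover, % inhibition and IC50. Compound and 833 ng/ml enzyme met for 15 min RT in pH 5.5 MES/DTT before substrate (15 min RT). The 29-480 His-tagged human enzyme was first activated by cathepsin L, then E-64 (10 μM).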
By IC50 is commonly meant the concentration that gives 50% inhibition. Consider `Cc1ccc(C(CC(=O)O)NC(=O)c2cc(O)n(-c3ccc(F)cc3F)n2)c(C)c1` (centres unmarked) [Example 195], for which the half-inhibitory concentration (IC50) fell in the range of 100 to 1000 nM.

Consider `O=C(O)C[C@H](NC(=O)c1cc(O)n(-c2ccccc2)n1)c1ccc(F)cc1` [Example 163], for which the IC50 was 100 to 1000 nM. Still for that read-out and setting: the value for `O=C(O)CC(NC(=O)c1cc(O)n(-c2cccc(Cl)c2)n1)c1cccc(C(F)(F)F)c1Cl` (centres unmarked) [Example 263] was 100 to 1000 nM.

Staying with this test, now noted: read-out: Activity (2): Cathepsin A inhibitory activity (IC50 class).
As for `Cc1ccc([C@H](CC(=O)O)NC(=O)c2cc(OC[C@@](C)(O)C(C)C)n(-c3ccccc3F)n2)c(C)c1` [Example 772, (S)-3-(2,4-Dimethyl-phenyl)-3-{[1-(2-fluoro-phenyl)-5-((S)-2-hydroxy-2,3-dimethyl-butoxy)-1H-pyrazole-3-carbonyl]-amino}-propionic acid], the IC50 is below 100 nM. In the case of `Cc1ccc([C@H](CC(=O)O)NC(=O)c2cc(OCC(C)(O)c3ccccc3)n(-c3ccccc3F)n2)cc1` (some centres unmarked) [Example 636], the IC50 is below 100 nM. Same read-out and setting: the value for `CCOCCOCCOc1cc(C(=O)N[C@@H](CC(=O)O)c2ccccc2C)nn1-c1ccccc1F` [Example 637] was below 100 nM; that for `O=C(O)CC(NC(=O)c1cc(O)n(-c2ccccc2)n1)c1ccc(N2CCCC2)cc1` (centres unmarked) [Example 565, 3-[(5-Hydroxy-1-phenyl-1H-pyrazole-3-carbonyl)-amino]-3-(4-pyrrolidin-1-yl-phenyl)-propionic acid] was 1000 to 30000 nM. Regarding `Cc1ccccc1[C@H](CC(=O)O)NC(=O)c1cc(OCc2ccno2)n(-c2ccccc2F)n1` [Example 658], the concentration for half-maximal inhibition (IC50) is below 100 nM. Still for that read-out and setting: the figure for `CCOc1cc(C(=O)NC(CC(=O)O)c2cccc(F)c2C)nn1-c1ccccc1Cl` (centres unmarked) [Example 725] is below 100 nM; for `CC(C)C(C)(O)COc1cc(C(=O)N[C@@H](CC(=O)O)c2cccc(F)c2)nn1-c1ccccc1F` (stereo partly drawn) [Example 782, (S)-3-(3-Fluoro-phenyl)-3-{[1-(2-fluoro-phenyl)-5-(2-hydroxy-2,3-dimethyl-butoxy)-1H-pyrazole-3-carbonyl]-amino}-propionic acid] it is below 100 nM. For the compound `O=C(O)C[C@H](NC(=O)c1cc(OCC2CC2)n(-c2ccccc2F)n1)c1ccccc1Cl` [Example 696], the IC50 was below 100 nM.

With `COc1cc(-c2ccccc2)ccc1C(CC(=O)O)NC(=O)c1cc(O)n(-c2ccccc2)n1` (centres unmarked) [Example 545, 3-[(5-Hydroxy-1-phenyl-1H-pyrazole-3-carbonyl)-amino]-3-(3-methoxy-biphenyl-4-yl)-propionic acid], the half-inhibitory concentration (IC50) is 1000 to 30000 nM. On to `O=C(O)CC(NC(=O)c1cc(O)n(Cc2ccccc2)n1)c1ccc(-c2ccc(F)cc2)cc1` (centres unmarked) [Example 538], for which the concentration for half-maximal inhibition (IC50) was in the range of 100 to 1000 nM. With `CCOc1cc(C(=O)N[C@@H](CC(=O)O)c2ccccc2OC)nn1-c1ccccc1F` [Example 709], the IC50 was 100 to 1000 nM.

Staying with this test, now noted: read-out: Activity (2): Cathepsin A inhibitory activity, IC50 class.
On to `O=C(O)CC(NC(=O)c1cc(O)n(-c2cccc(F)c2)n1)c1ccc(OC(F)(F)F)cc1` (centres unmarked) [Example 315], for which the IC50 fell in the range of 100 to 1000 nM. Consider `Cc1ccc(C)c(-n2nc(C(=O)NC(CC(=O)O)c3ccc(F)c(F)c3)cc2O)c1` (centres unmarked) [Example 47], for which the half-inhibitory concentration (IC50) was in the range of 1000 to 30000 nM. For the compound `CC(C)(C)[C@@H](O)COc1cc(C(=O)N[C@@H](CC(=O)O)c2ccc(Cl)cc2)nn1-c1ccccc1F` [Example 828, (S)-3-(4-Chloro-phenyl)-3-{[1-(2-fluoro-phenyl)-5-((R)-2-hydroxy-3,3-dimethyl-butoxy)-1H-pyrazole-3-carbonyl]-amino}-propionic acid], the concentration for half-maximal inhibition (IC50) fell in the range of 100 to 1000 nM.

With `O=C(O)C[C@H](NC(=O)c1cc(O)n(-c2ccccc2Cl)n1)c1ccc(Cl)cc1Cl` [Example 106], the IC50 lay within 100 to 1000 nM.

Take `COc1ccc(C(CC(=O)O)NC(=O)c2cc(O)n(-c3ccc(F)c(Cl)c3)n2)c(F)c1` (centres unmarked) [Example 88]: the IC50 is 1000 to 30000 nM. As for `O=C(O)C[C@H](NC(=O)c1cc(O)n(-c2ccc(F)cc2)n1)c1ccc(F)cc1` [Example 346], the IC50 was 1000 to 30000 nM. Regarding `Cc1ccc(C)c(-n2nc(C(=O)NC(CC(=O)O)c3ccc(CC(C)C)cc3)cc2O)c1` (centres unmarked) [Example 46], the half-maximal inhibitory concentration (IC50) fell in the range of 1000 to 30000 nM. Still for that read-out and setting: the value for `CC(C)[C@@](C)(O)COc1cc(C(=O)NC(CC(=O)O)Cc2ccccc2)nn1-c1ccccc1F` (stereo partly drawn) [Example 821, 3-{[1-(2-Fluoro-phenyl)-5-((R)-2-hydroxy-2,3-dimethyl-butoxy)-1H-pyrazole-3-carbonyl]-amino}-4-phenyl-butyric acid] was below 100 nM.

In the case of `O=C(O)CC(NC(=O)c1cc(O)n(-c2ccccc2)n1)c1ccc(-c2ccc(F)cc2)cc1` (centres unmarked) [Example 104], the 50% inhibitory concentration (IC50) was in the range of 100 to 1000 nM. Consider `O=C(O)C[C@H](NC(=O)c1cc(O)n(-c2ccc(F)cc2)n1)c1c(F)cccc1F` [Example 368], for which the IC50 is 100 to 1000 nM. Consider `O=C(O)C[C@H](NC(=O)c1cc(O)n(-c2cccc(F)c2)n1)c1cccc(C(F)(F)F)c1` [Example 318], for which the IC50 lay within 100 to 1000 nM. The same measure, in the same setting: the value for `COc1cccc([C@H](CC(=O)O)NC(=O)c2cc(O)n(-c3ccc(F)cc3)n2)c1OC` [Example 353] was 100 to 1000 nM.

`Cc1ccc(C)c(C(CC(=O)O)NC(=O)c2cc(O)n(-c3ccc(F)cc3)n2)c1` (centres unmarked) [Example 359]: the IC50 lay within 1000 to 30000 nM. On to `Cc1cccc([C@H](CC(=O)O)NC(=O)c2cc(O)n(-c3ccc(Cl)cc3)n2)c1` [Example 284], for which the concentration for half-maximal inhibition (IC50) lay within 100 to 1000 nM. With `CC(C)(C)[C@](C)(O)COc1cc(C(=O)NC(CC(=O)O)Cc2ccccc2)nn1-c1ccccc1F` (stereo partly drawn) [Example 818, 3-{[1-(2-Fluoro-phenyl)-5-((S)-2-hydroxy-2,3,3-trimethyl-butoxy)-1H-pyrazole-3-carbonyl]-amino}-4-phenyl-butyric acid], the half-inhibitory concentration (IC50) is below 100 nM.

As to `O=C(O)CC(NC(=O)c1cc(O)n(-c2ccc(F)cc2)n1)c1cccc(Cl)c1F` (centres unmarked) [Example 361], the IC50 lay within 100 to 1000 nM. Same read-out and setting: the figure for `Cc1ccc(C)c(-n2nc(C(=O)NC(CC(=O)O)C3CCOCC3)cc2O)c1` (centres unmarked) [Example 43] is 1000 to 30000 nM; for `O=C(O)CC(NC(=O)c1cc(O)n(-c2ccc(F)cc2)n1)c1cccc(C(F)(F)F)c1F` (centres unmarked) [Example 360] it is 100 to 1000 nM.

Staying with this test, now noted: recombinant human cathepsin A 833 ng/ml, Bodipy FL-labeled bradykinin 2 μM, pH 5.5; read-out: CATH-A IC50.
For `O=C(O)CC(NC(=O)c1cc(O)n(-c2ccccc2F)n1)c1cc(F)ccc1Cl` (centres unmarked) [Example 475, 3-(2-Chloro-5-fluoro-phenyl)-3-{[1-(2-fluoro-phenyl)-5-hydroxy-1H-pyrazole-3-carbonyl]-amino}-propionic acid], the IC50 turned out to be 137 nM.

As to `O=C(O)CC(NC(=O)c1cc(O)n(-c2ccccc2)n1)c1ccc(N2CCCC2)cc1` (centres unmarked) [Example 565, 3-[(5-Hydroxy-1-phenyl-1H-pyrazole-3-carbonyl)-amino]-3-(4-pyrrolidin-1-yl-phenyl)-propionic acid], the IC50 was 5020 nM. For the compound `O=C(O)CC(NC(=O)c1cc(O)n(-c2ccccc2)n1)c1ccc(-c2ccccn2)cc1` (centres unmarked) [Example 499, 3-[(5-Hydroxy-1-phenyl-1H-pyrazole-3-carbonyl)-amino]-3-(4-pyridin-2-yl-phenyl)-propionic acid; compound with trifluoro-acetic acid], the IC50 was determined as 147 nM.

In the case of `O=C(O)CC(NC(=O)c1cc(O)n(-c2cccc(Cl)c2)n1)c1ccc(-c2ccccn2)cc1` (centres unmarked) [Example 513, 3-{[1-(3-Chloro-phenyl)-5-hydroxy-1H-pyrazole-3-carbonyl]-amino}-3-(4-pyridin-2-yl-phenyl)-propionic acid], the IC50 was found to be 195 nM. Consider `COc1cc(-c2ccccc2)ccc1C(CC(=O)O)NC(=O)c1cc(O)n(-c2ccccc2)n1` (centres unmarked) [Example 545, 3-[(5-Hydroxy-1-phenyl-1H-pyrazole-3-carbonyl)-amino]-3-(3-methoxy-biphenyl-4-yl)-propionic acid], for which the half-inhibitory concentration (IC50) is 1110 nM.

The same test, now with this note: recombinant human cathepsin A; read-out: Activity (2): Cathepsin A inhibitory activity, IC50 class.
For the compound `Cc1ccccc1[C@H](CC(=O)O)NC(=O)c1cc(O)n(-c2ccccc2C(F)(F)F)n1` [Example 537], the IC50 was 100 to 1000 nM. With `O=C(O)CC(NC(=O)c1cc(O)n(-c2ccccc2F)n1)c1cc(F)ccc1Cl` (centres unmarked) [Example 475, 3-(2-Chloro-5-fluoro-phenyl)-3-{[1-(2-fluoro-phenyl)-5-hydroxy-1H-pyrazole-3-carbonyl]-amino}-propionic acid], the half-inhibitory concentration (IC50) was in the range of 100 to 1000 nM. On to `O=C(O)CC(NC(=O)c1cc(O)n(-c2ccccc2)n1)c1ccc(-c2ccccn2)cc1` (centres unmarked) [Example 499, 3-[(5-Hydroxy-1-phenyl-1H-pyrazole-3-carbonyl)-amino]-3-(4-pyridin-2-yl-phenyl)-propionic acid; compound with trifluoro-acetic acid], for which the IC50 lay within 100 to 1000 nM. `O=C(O)CC(NC(=O)c1cc(O)n(-c2cccc(Cl)c2)n1)c1ccc(-c2ccccn2)cc1` (centres unmarked) [Example 513, 3-{[1-(3-Chloro-phenyl)-5-hydroxy-1H-pyrazole-3-carbonyl]-amino}-3-(4-pyridin-2-yl-phenyl)-propionic acid]: the IC50 is 100 to 1000 nM.
